Counter-ions that a name gives are not always drawn. Each block holds one molecule with its values, some of them ahead of it. Residues, ends and D or L forms follow the SMILES beside them. *: point of attachment. Cbz = O=C(OCc1ccccc1)*; CH2F = FC*
Experiments:
[1] = tested on: CGNs, DRG sensory neurons or NG108 cells on immobilized CNS myelin; assay: neurite outgrowth assay on CNS myelin substrate; type: cell-based, rat; details: for neurite outgrowth on immobilized CNS myelin: P7-9 rat CGNs and DRG sensory neurons; for neurite outgrowth on a CNS myelin substrate: 100 nM
Description: (§1) To assess the functional relevance of the activation of the PI3K, MEK and PLC-g pathways, we utilized a standard neurite outgrowth assay in which NG108 cells or cerebellar granule neurons (CGN) from postnatal day 7-9 (P7-9) rats were grown on immobilized recombinant MAG or myelin (5-10, 16). Pharmacological inhibitors of the individual pathways—LY294002 and wortmannin for PI3K, U0126 for MEK, and U73122 for PLC-g, were then added to assess whether and to what extent these inhibitors could overcome the inhibitory activity of MAG or of myelin. […] As MEK has been previously shown to be required for axon growth induced by chronic exposure to neurotrophins (14), but not for growth cone turning in acute responses to NGF gradients (12), our results of abolishing MAG inhibition by an MEK inhibitor imply that the MEK pathway can be required only for neurite outgrowth in response to external cues.
Based on the modulation of neurite outgrowth by modulating PKC activity, we predicted that inhibiting PKC activity might abolish or convert the inhibitory responses of neurons to MAG and other myelin-associated inhibitors. […] Based on existing evidence for the functional interactions between the PKA and PKC pathways (24), we conclude that both PKA and PKC act through parallel mechanisms in affecting neurite outgrowth. Although many PKC isoforms are expressed in the nervous system (25), our observations with phorbol ester and selective PKC inhibitors indicate the involvement of at least classical PKC isoforms whose activation is dependent on diacylglycerol (DAG) and calcium (24).
Screening for compounds that allow neurite outgrowth from postnatal day 7-9 rat cerebellar granule neurons (CGNs) on CNS myelin substrates, we identified several broad-specificity PKC inhibitors from a small molecule libraries. Based on their structure and substrate requirements, PKC isoforms can be divided into three classes: the Ca++ and second messenger diacylglycerol (DAG)-sensitive conventional PKCs (-α, -β, and -γ), the Ca++-independent but DAG-dependent novel PKCs (-δ, -ε, -η, -θ, and -μ), and the Ca++- and DAG-insensitive atypical PKCs (-ζ and -λ). We first examined PKC inhibitors with a higher specificity for the conventional class of PKC isotypes for their ability to promote neurite outgrowth on CNS myelin. These inhibitors included Chelerythrine, Calphostin, Bisindoleylmaleimide I, and Gö6976. Dose response experiments (in the range of 10 nM to 10 uM) were carried out for each PKC inhibitor.

[2] = tested on: NG108 cells and CGNs transfected with Akt forms; assay: neurite outgrowth of Akt-transfected cells; type: cell-based, rat; parameters: effect on pro-growth effect of dominant negative Akt / cell survival / process extension of constitutively active Akt expressing NG108 cells: unit of the concentration uncertain
From the text: Having determined that the PI3K pathway is both activated and required in MAG signaling, we next examined whether Akt, a major downstream effector of PI3K in promoting cell survival (13, 17) and in determining the directionality of cell movement during chemotaxis (18), could account for the neurite inhibitory effect of MAG. To this end, we transfected NG108 cells with three versions of the Akt product—a constitutive active, a dominant negative and a wild type form (19), and compared their effects on neurite outgrowth.
Since Akt has been thought of as a positive regulator of neurite outgrowth (21), our results with over-expression of constitutively active Akt came as a surprise. […] However, expression of dominant negative Akt led to the death of the transfected CGNs, consistent with a critical role of Akt in promoting cell survival (13, 17 and 19). Thus, the neurite outgrowth response elicited by Akt activation differs in a cell type specific manner.
Growth cone responses can be converted from attraction to repulsion and vice versa through the modification of cellular cyclic nucleotide levels (12, 16, 23). […] As the PLCg pathway is activated by MAG and PKC is a major effector of PLCg (15), we assessed whether changes in PKC activity could affect the activity of different forms of Akt in NG-108 cells on the PDL substrate.

protein kinase C = details: cited from earlier work
[3] = tested on: NG108 cells or cerebellar granule neurons (CGN) on immobilized recombinant MAG; assay: neurite outgrowth assay on immobilized recombinant MAG; type: cell-based, rat
Description: as §1

[4] = tested on: CGNs on MAG, Nogo-A and OMgp; assay: neurite outgrowth on individual myelin inhibitors; type: cell-based, rat
Description: […] Based on their structure and substrate requirements, PKC isoforms can be divided into three classes: the Ca++ and second messenger diacylglycerol (DAG)-sensitive conventional PKCs (-α, -β, and -γ), the Ca++-independent but DAG-dependent novel PKCs (-δ, -ε, -η, -θ, and -μ), and the Ca++- and DAG-insensitive atypical PKCs (-ζ and -λ). […] These inhibitors included Chelerythrine, Calphostin, Bisindoleylmaleimide I, and Gö6976. Dose response experiments (in the range of 10 nM to 10 uM) were carried out for each PKC inhibitor.

NG108 cells and CGNs = assay: toxicity to cultured neuronal cells; type: cell-based, rat; details: even at 100 nM
Description: as §1

[5] = tested on: P7 rat CGNs injected into the ventral funiculus of the adult rat spinal cord; assay: intra white matter transplantation of CGNs; type: in vivo; details: two weeks after transplantation; CGNs pretreated with 50 nM
Description: We thus injected vehicle or Gö6976-treated P7 rat CGNs into the ventral funiculus of the adult rat spinal cord and examined neurite outgrowth of these transplanted neurons within the white matter that is largely composed of myelinated axons (26).
26. Intra white matter transplantation of CGNs. P7 CGN (50,000 cells/ml) were prelabeled with Cell Tracker CM-DiI (1 mM; Molecular Probes, Eugene, Oreg.), pretreated with PBS or 50 nM Gö6976, and microinjected at the level of T9 into the spinal cord ventral funiculus of adult Sprague-Dawley rats ([…]; N=3 for each group). Two pieces of 2 mm^3 gelfoam (Pharmacia & Upjohn, Kalamazoo, Mich.) soaked with PBS or 500 nM Gö6976 were placed onto the spinal dura where the penetration for cell injection occurred. Spinal cords (8 mm in length centered around the CGN injection site) were collected 2 weeks after surgery, and […] sagittal sections were made. DiI positive CGNs were examined with a fluorescent microscope (Omega XF-32 optical filter) in all sections of each cord to evaluate cell survival (27). Percentages of the neurite-bearing CGNs and CGNs with neurites longer than twice the soma length were quantified among 400 CGNs from a single […] of each cord that had the highest number of neurite-bearing CGNs.

RhoA = RhoA pull down assay in stimulated CGNs; type: cell-based, rat; details: cultured CGNs
From the text: We also assessed whether individual inhibitors affect endogenous PKC activity in treated neurons. […] To further confirm the role of PKC as a direct signaling mediator, we examined whether PKC activation by myelin inhibitors is dependent on NgR, a required receptor component for all of the three major myelin inhibitors. Thus, we used recombinant retroviruses to overexpress full-length or dominant negative NgR in CGNs and examined PKC activation in these transduced neurons by NgR ligands. […] An additional and critical signaling event shared by these inhibitory activities is the activation of the small GTPase RhoA. In order to determine the relationship between PKC and RhoA in these pathways, we stimulated cultured CGNs with MAG-Fc, AP-Nogo-66 or CSPG in the presence or absence of Gö6976 and examined the RhoA activation in these conditions by subjecting the resulting cell lysates to a RhoA pull down assay. […] Thus, conventional PKCs participate in transducing the inhibitory signals of both myelin inhibitors and CSPG from their specific cell surface receptors to activate RhoA.

[6] = tested on: dorsal column ascending axons; assay: dorsal column axonal regeneration after C3-4 spinal dorsal hemisection; type: in vivo, adult rats
Description: To assess the contribution of PKC mediated inhibitory effects on axon regeneration in vivo, we examined whether intrathecal infusion of Gö6976 affected regeneration of dorsal column ascending axons following spinal cord dorsal hemisection in adult rats. The hemisection was performed between the 3rd and 4th cervical spinal segments (C3-4) to a depth of 1.6 mm from the dorsal surface of the cord using a VibraKnife device that can be used to precisely control the lesion depth stereotaxically. To ensure that bilateral dorsal columns were completely transected, the lesion was advanced ventrally to the level of central cannel resulting in the transection of the entire dorsal half of the spinal cord. After the lesion, dura mater was sutured to restore cerebespinal fluid circulation and to prevent connective tissue invasion. Intrathecal delivery of Gö6976 (20 uM) or saline vesicle into the lesion site was achieved by constant infusion of the compound at a rate of 0.5 ul/hr for 14 days using an Alzet mini-osmotic pump (Model 2002). Five weeks after surgery, a narrow lesion gap through the dorsal half of the cord was clearly seen, confirming the completeness of dorsal column transection. […] Anatomical regeneration of injured dorsal column axons was assessed by anterograde tracing of Cholera toxin B subunit (CTB) which was injected into bilateral sciatic nerves and brachial plexuses.

[7] = tested on: neurons on CSPG substrate; assay: neurite outgrowth on CSPG substrate; type: cell-based, rat
From the text: We examined whether PKC is involved in the inhibitory activity of CSPG, the other major inhibitory activity associated with glial scars in the adult CNS.

[8] = tested on: CGNs, DRG sensory neurons or NG108 cells on immobilized CNS myelin; details: previously shown; cited from earlier work
[9] = NG-108 cells, 10 (unit uncertain)

Molecule: Nc1ncnc2c1ncn2[C@@H]1O[C@@H]2COP(O)(=S)O[C@H]2[C@H]1O (some centres unmarked) [sp-cAMP]
neurite outgrowth on immobilized CNS myelin [1]: stimulated neurite outgrowth

Molecule: bisindolylmaleimide [GFX]
neurite outgrowth on immobilized CNS myelin [1]: profoundly affected neurite outgrowth by enhancing both the number of neurite-bearing cells and the length of neurites
neurite outgrowth from untransfected cells and wild type Akt transfected cells [2]: did not result in significant alterations in neurite outgrowth
process extension of constitutively active Akt expressing NG108 cells ([2]; PDL substrate, 5 (unit uncertain)): the majority of constitutively active Akt expressing NG108 cells extended processes

Molecule: CC(NC(=O)C(NC(=O)OCc1ccccc1)C(C)C)C(=O)NC(CC(=O)O)C(=O)CF (stereo not drawn) [ZVAD] (Cbz-Val-Ala-Asp-CH2F; configuration not given here)
cell survival [2, 9]: enhancing cell survival
effect on pro-growth effect of dominant negative Akt [2, 9]: did not affect the pro-growth effect of the dominant negative form of Akt

Molecule: Nc1nc2c(nc(Br)n2[C@@H]2O[C@@H]3COP(O)(=S)O[C@H]3[C@H]2O)c(=O)[nH]1 (some centres unmarked) [Rp-8-Br-cGMPS]
neurite outgrowth on CNS myelin substrate ([1]; P7-9 rat CGNs): failed to overcome the inhibitory effects of CNS myelin

Molecule: CC1CNCCN1S(=O)(=O)c1cccc2cnccc12 (racemic) [compound 542, (+−)-1-(5-Isoquinolinesulfonyl)-2-methylpiperazine dihydrochloride]
IC50 (protein kinase C): 6 µM

Molecule: N#CC(=C(/N)Sc1ccccc1N)/C(C#N)=C(\N)Sc1ccccc1N [U0126]
neurite outgrowth on the MAG substrate [3]: promoted neurite outgrowth

Molecule: O=S(=O)(c1cccc2cnccc12)N1CCNCC1 [compound 543, 1-(5-Isoquinolinesulfonyl)piperazine]
IC50 (protein kinase C): 6 µM

Molecule: calphostin C
neurite outgrowth on immobilized CNS myelin [1]: profoundly affected neurite outgrowth by enhancing both the number of neurite-bearing cells and the length of neurites
neurite outgrowth on a CNS myelin substrate ([1]; P7-9 rat CGNs): profoundly mitigated outgrowth inhibition and promoted significant neurite outgrowth
neurite outgrowth inhibition induced by MAG, Nogo-A and OMgp [4]: efficiently overcame neurite outgrowth inhibition

Molecule: COc1ccc2c(c1)CC[C@@H]1[C@@H]2CC[C@]2(C)[C@@H](NCCCCCCN3C(=O)C=CC3=O)CC[C@@H]12 [U73122]
toxicity to cells (NG108 cells and CGNs): appeared toxic

Molecule: CCCCCCCCCCCCCC(=O)O[C@@H]1[C@@H](C)[C@@]2(O)[C@@H](C=C(CO)C[C@]3(O)C(=O)C(C)=C[C@@H]23)[C@@H]2C(C)(C)[C@]12OC(C)=O [PMA, phorbol myristate-13-acetate]
neurite outgrowth from untransfected cells and wild type Akt transfected cells [2]: did not result in significant alterations in neurite outgrowth
neurite outgrowth promoting activity of active Akt in CGNs ([2]; CGNs): abolished the neurite outgrowth promoting activity of active Akt
neurite outgrowth from NG108 cells expressing dominant negative Akt ([2]; PDL substrate, 100 nM): resulted in inhibition of neurite outgrowth

Molecule: Cn1c2ccccc2c2c3c(c4c5ccccc5n(CCC#N)c4c21)CNC3=O [Gö6976]
donor neurons bearing neurites [5]: 85%
neurite-bearing neurons with neurites longer than twice their soma diameters [5]: 80%
neurite outgrowth on immobilized CNS myelin [1]: profoundly affected neurite outgrowth by enhancing both the number of neurite-bearing cells and the length of neurites
neurite outgrowth on a CNS myelin substrate ([1]; P7-9 rat CGNs): profoundly mitigated outgrowth inhibition and promoted significant neurite outgrowth
MAG-Fc, AP-Nogo-66 and CSPG induced RhoA activation (RhoA): blocked MAG-Fc, AP-Nogo-66 and CSPG induced RhoA activation in a dose dependent manner
regeneration of CTB-labeled dorsal column axons across the lesion ([6]; 20 uM intrathecal, 0.5 ul/hr for 14 days, five weeks after surgery): CTB-labeled axons were seen to cross the lesion gap and grow within the distal host spinal cord for a considerable distance
distance distal to the injury at which many regenerated axons ended ([6]; 20 uM intrathecal, 0.5 ul/hr for 14 days, longest distance examined): 7 mm
functional connections and recovery ([6]; subsequent studies): improves physiological and behavioral recovery
neurite outgrowth inhibition induced by MAG, Nogo-A and OMgp [4]: efficiently overcame neurite outgrowth inhibition

effect on CSPG substrate relative to chondroitinase ABC [7]: stronger effects than chondroitinase ABC
Molecule: C[C@@H](N)[C@H]1CC[C@H](C(=O)Nc2ccncc2)CC1 [Y-27632]
neurite outgrowth from neurons on CSPG substrate [7]: allowed the cultured neurons to overcome the inhibitory activity of CSPG
block of the inhibitory activity of CNS myelin and its components [8]: block the inhibitory activity of CNS myelin and its components
